Assay results from ChEMBL document CHEMBL4715898, “Synthesis and structure-activity relationships of pyrimidine derivatives as potent and orally active FGFR3 inhibitors with both increased systemic exposure and enhanced in vitro potency” (Bioorg Med Chem, 2021).
Values after ≈ are worked out from the molar mass of the structure shown.

Key:
[1] = physchem; details: buffer, pH 7.4
[2] = cells; details: Homo sapiens, NIH3T3, 120 h
[3] = in vitro; details: PAMPA, pH 7.4
[4] = physchem; details: JP2 fluid, pH 6.8
[5] = in vivo; details: ICR, mouse, plasma, po, 30 mg/kg
[6] = mouse, in vivo, po, 30 mg/kg, 0.75 h
[7] = animal or person; details: Mus musculus, Balb/c, NIH3T3, po, 6 h, read-out: INH

Question: For `CCNS(=O)(=O)c1ccccc1Nc1nc(Nc2ccc(N3CCC(N4CCN(C)CC4)CC3)c(OC)c2)ncc1CCc1cc(OC)cc(OC)c1`, which logD [1] is on record?
Answer: The logD was over 4.8.

Question: What about the IC50 [2] of the same molecule?
Answer: The IC50 was 34 nM.

Question: And the Papp at 2 h [3]?
Answer: The Papp at 2 h was 1.8 ×10⁻⁶ cm/s.

Question: And the solubility at 20 h, 10000 µM [4]?
Answer: Its solubility at 20 h, 10000 µM is under 1 µM.

Question: Which logD [1] does the source give for `CCNS(=O)(=O)c1ccccc1Nc1nc(Nc2ccc(N3CCC(N4CCN(C)CC4)CC3)c(OC)c2)ncc1NC(=O)c1cc(OC)cc(OC)c1` here?
Answer: Its logD is over 3.9.

Question: And the IC50 [2]?
Answer: Its IC50 is 99 nM.

Question: And the Papp at 2 h [3]?
Answer: Its Papp at 2 h is 1.4 ×10⁻⁶ cm/s.

Question: What about the concentration at 6 h [5] of the same molecule?
Answer: Its concentration at 6 h is 98.2 nM.

Question: What about the CL [6] of the same molecule?
Answer: Its CL is over 600 mL/min/kg.

Question: What about the solubility at 20 h, 10000 µM [4] of the same molecule?
Answer: The solubility at 20 h, 10000 µM was under 1 µM.

Question: For `COc1cc(COc2cnc(Nc3ccc(N4CCC(N5CCN(C)CC5)CC4)c(OC)c3)nc2)cc(OC)c1`, which logD [1] is on record?
Answer: Its logD is 3.2.

Question: And the Papp at 2 h [3]?
Answer: The Papp at 2 h was 18.5 ×10⁻⁶ cm/s.

Question: What about the solubility at 20 h, 10000 µM [4] of the same molecule?
Answer: The solubility at 20 h, 10000 µM was at least 100 µM.

Question: Which logD [1] does the source give for `COc1cc(Nc2ncc(CCc3c(F)c(OC)cc(OC)c3Cl)cn2)ccc1N1CCC(N2CCN(C)CC2)CC1` here?
Answer: The logD was 3.5.

Question: And the Papp at 2 h [3]?
Answer: The Papp at 2 h was 19.4 ×10⁻⁶ cm/s.

Question: And the solubility at 20 h, 10000 µM [4]?
Answer: Its solubility at 20 h, 10000 µM is 12 µM (≈ 7.19 µg/mL).

Question: For `COc1cc(Nc2ncc(CCc3c(Cl)c(OC)cc(OC)c3Cl)cn2)ccc1N1CCC(N2CCN(C)CC2)CC1`, which logD [1] is on record?
Answer: Its logD is 4.4.

Question: And the Papp at 2 h [3]?
Answer: The Papp at 2 h was 18.7 ×10⁻⁶ cm/s.

Question: What about the solubility at 20 h, 10000 µM [4] of the same molecule?
Answer: Its solubility at 20 h, 10000 µM is 5 µM (≈ 3.08 µg/mL).

Question: With `COc1cc(CCc2cnc(Nc3ccc(N4CCC(N5CCN(C)CC5)CC4)c(OC)c3)nc2)cc(OC)c1` as the molecule, how does the logD [1] read?
Answer: Its logD is 3.5.

Question: And the Papp at 2 h [3]?
Answer: Its Papp at 2 h is 15.1 ×10⁻⁶ cm/s.

Question: And the concentration at 6 h [5]?
Answer: Its concentration at 6 h is 1120 nM.

Question: And the CL [6]?
Answer: Its CL is 227 mL/min/kg.

Question: And the inhibition in vivo at 30 mg/kg [7]?
Answer: The inhibition in vivo at 30 mg/kg was 21%.

Question: And the solubility at 20 h, 10000 µM [4]?
Answer: Its solubility at 20 h, 10000 µM is at least 100 µM.

Question: Which results are given for `COc1cc(OC)cc(C(=O)Nc2cnc(Nc3ccc(N4CCC(N5CCN(C)CC5)CC4)c(OC)c3)nc2NCCS(C)(=O)=O)c1`?
Answer: logD [1]: 1.8; Papp at 2 h [3]: < 0.2 ×10⁻⁶ cm/s; solubility at 20 h, 10000 µM [4]: ≥ 100 µM

Question: Which logD [1] does the source give for `COc1cc(OC)cc(OCc2cnc(Nc3ccc(N4CCC(N5CCN(C)CC5)CC4)c(OC)c3)nc2)c1` here?
Answer: The logD was 3.4.

Question: What about the Papp at 2 h [3] of the same molecule?
Answer: The Papp at 2 h was over 30 ×10⁻⁶ cm/s.

Question: What about the solubility at 20 h, 10000 µM [4] of the same molecule?
Answer: The solubility at 20 h, 10000 µM was at least 100 µM.

Question: For `COc1cc(CNc2cnc(Nc3ccc(N4CCC(N5CCN(C)CC5)CC4)c(OC)c3)nc2)cc(OC)c1`, which logD [1] is on record?
Answer: The logD was 2.9.

Question: And the Papp at 2 h [3]?
Answer: The Papp at 2 h was 18.1 ×10⁻⁶ cm/s.

Question: What about the solubility at 20 h, 10000 µM [4] of the same molecule?
Answer: The solubility at 20 h, 10000 µM was at least 100 µM.

Question: What does the source list for `COc1cc(OC)cc(C(=O)N(C)c2cnc(Nc3ccc(N4CCC(N5CCN(C)CC5)CC4)c(OC)c3)nc2)c1`?
Answer: logD [1]: 1.8; Papp at 2 h [3]: 3.7 ×10⁻⁶ cm/s; solubility at 20 h, 10000 µM [4]: ≥ 100 µM

Question: For `COc1cc(CCc2cnc(Nc3ccc(N4CCC(N5CCN(C)CC5)CC4)c(OC)c3)nc2)c(F)c(OC)c1`, which logD [1] is on record?
Answer: The logD was 3.2.

Question: And the Papp at 2 h [3]?
Answer: The Papp at 2 h was 24.4 ×10⁻⁶ cm/s.

Question: And the solubility at 20 h, 10000 µM [4]?
Answer: The solubility at 20 h, 10000 µM was at least 100 µM.

Question: What does the source list for `COc1cc(OC)cc(C(=O)Nc2cnc(Nc3ccc(N4CCC(N5CCN(C)CC5)CC4)c(OC)c3)nc2Nc2ccccc2)c1`?
Answer: logD [1]: 3.7; Papp at 2 h [3]: 0.4 ×10⁻⁶ cm/s; solubility at 20 h, 10000 µM [4]: 36 µM (≈ 23.5 µg/mL)

Question: Which logD [1] does the source give for `COc1cc(OC)cc(C(=O)Nc2cnc(Nc3ccc(N4CCC(N5CCN(C)CC5)CC4)c(OC)c3)nc2)c1` here?
Answer: Its logD is 2.8.

Question: And the Papp at 2 h [3]?
Answer: Its Papp at 2 h is under 2.9 ×10⁻⁶ cm/s.

Question: What about the solubility at 20 h, 10000 µM [4] of the same molecule?
Answer: Its solubility at 20 h, 10000 µM is at least 100 µM.
